The source of these data is US9216964B2, “Hedgehog pathway modulators” (Novartis AG, priority 2008, dated 2015).

Like-named read-outs stand apart in the source and are kept apart here.

The assay has as its system hedgehog signaling pathway. Put plainly: Gli-Luc Reporter Assay for Hh Pathway Inhibition (TMHh-12 cells, pTA-8×Gli-Luc reporter). The class given is cell-based, Mouse. The settings on record: Mus musculus. In outline: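 Mouse TM3 cells stably carrying an 8×Gli-firefly luciferase reporter, in 2% FBS medium; pathway activated with recombinant mouse Shh (8 μg/mL) or Smo agonist, compounds added at varying concentrations for 48 h. Luminescence read; IC50 at 50% signal reduction. Toxicity checked in TM3 cells (CellTiter-Glo) or constitutive-luciferase TM3-Luc cells.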
On the technique in general: A reporter such as luciferase makes a cellular process visible.

The mark [1] stands for this setting: TMHh12, enzymatic and cellular assays for the inhibition of hedgehog signaling pathways, read-out: IC50 Ranges.
Where [2] appears, read: TMHh12, Ag1.5 1 nM, read-out: Hedgehog Inhibition IC50 (nM) (Ag1.5 1 nM).

The IC50 is the point on the concentration scale where inhibition reaches its midpoint. Turning to `COc1ccc(-c2cc(Nc3cccc4c3CCN(S(C)(=O)=O)C4)ccc2C)nc1` [Compound 174], the IC50 under setting [1] is 0.001 to 1 nM. As for `CS(=O)(=O)N1CCc2c(cccc2Nc2cnc(Cl)c(-c3ccc(C#N)cc3)c2)C1` [Compound 175], the IC50 under setting [1] was 10 to 100 nM.

For the compound `COc1cnc(-c2cc(Nc3cccc4c3CCN(S(C)(=O)=O)C4)ccc2C)nc1` [Compound 176], under setting [1], the IC50 fell in the range of 10 to 100 nM. For the compound `CS(=O)(=O)N1CCc2c(cccc2Nc2ccc(CO)c(-c3ccc(C#N)cc3)c2)C1` [Compound 178], the concentration for half-maximal inhibition (IC50) under setting [1] fell in the range of 100 to 1000 nM.

Turning to `CN(C)Cc1ccc(Nc2cccc3c2CCN(S(C)(=O)=O)C3)cc1-c1ccc(C#N)cc1` [Compound 179], under setting [1], the concentration for half-maximal inhibition (IC50) lay within 100 to 1000 nM. The same measure, in the same setting: with `CNC(=O)c1ccc(Nc2cccc3c2CCN(S(C)(=O)=O)C3)cc1-c1ccc(C#N)cc1` [Compound 180] the figure was 100 to 1000 nM. As for `Cc1ccc(Nc2cccc3c2CCN(CC(C)(C)O)C3)cc1-c1ccc(F)cn1` [Compound 181], the 50% inhibitory concentration (IC50) under setting [1] was 1 to 10 nM. The same measure, in the same setting: the result for `Cc1ccc(Nc2cccc3c2CCN(CC(C)(C)F)C3)cc1-c1ccc(F)cn1` [Compound 182] reads 1 to 10 nM. On to `COc1ccc(-c2cc(Nc3cccc4c3CCN(S(C)(=O)=O)C4)ccc2C)nn1` [Compound 183], for which the IC50 under setting [1] was 1 to 10 nM. On to `Cc1ccc(Nc2cccc3c2CCN(S(C)(=O)=O)C3)cc1C(=O)Nc1ccc(C(F)(F)F)cc1` [Compound 184], for which the IC50 was 0.7 nM under setting [2] and 0.001 to 1 nM under setting [1]. The like results for `Cc1ccc(Nc2cccc3c2CCN(S(C)(=O)=O)C3)cc1C(=O)Nc1ccc(F)cc1` [Compound 185] were, in that order, 0.4 nM and 0.001 to 1 nM. `Cc1ccc(NC(=O)c2cc(Nc3cccc4c3CCN(S(C)(=O)=O)C4)ccc2C)cc1` [Compound 186]: the half-maximal inhibitory concentration (IC50) under setting [1] lay within 0.001 to 1 nM. Turning to `Cc1ccc(Nc2cccc3c2CCN(S(C)(=O)=O)C3)cc1C(=O)Nc1ccc(OC(F)(F)F)cc1` [Compound 187], the IC50 was 1.1 nM under setting [2] and 1 to 10 nM under setting [1].

As for `Cc1ccc(Nc2cccc3c2CCN(S(C)(=O)=O)C3)cc1-c1ccccn1` [Compound 189], the IC50 under setting [1] fell in the range of 0.001 to 1 nM. `COc1cnc(-c2cc(Nc3cccc4c3CCN(S(C)(=O)=O)C4)ccc2C)cn1` [Compound 190]: the concentration for half-maximal inhibition (IC50) under setting [1] was 1 to 10 nM. Turning to `Cc1cccc(-c2cc(Nc3cccc4c3CCN(S(C)(=O)=O)C4)ccc2C)n1` [Compound 191], under setting [1], the half-inhibitory concentration (IC50) was in the range of 1 to 10 nM. Still for that read-out and setting: the result for `Cc1ccnc(-c2cc(Nc3cccc4c3CCN(S(C)(=O)=O)C4)ccc2C)c1` [Compound 192] reads 0.001 to 1 nM.

As to `Cc1ccc(Nc2cccc3c2CCN(S(C)(=O)=O)C3)cc1C(=O)N(C)c1ccccc1` [Compound 193], the IC50 under setting [1] lay in the range of 100 to 1000 nM. As for `Cc1ccc(Nc2cccc3c2CCN(S(C)(=O)=O)C3)cc1C(=O)N(CCO)c1ccccc1` [Compound 194], under setting [1], the IC50 fell in the range of 100 to 1000 nM. Same read-out and setting: with `Cc1ccc(Nc2cccc3c2CCN(C[C@H](O)CO)C3)cc1-c1ccc(F)cn1` [Compound 195] the figure was 1 to 10 nM; with `Cc1ccc(Nc2cccc3c2CCN(CCC(F)(F)F)C3)cc1-c1ccc(C#N)cn1` [Compound 196], 1 to 10 nM.

Consider `Cc1c(CN(C)C)cc(Nc2cccc3c2CCN(S(C)(=O)=O)C3)cc1-c1ccc(F)cn1` [Compound 197], for which the IC50 under setting [1] was in the range of 1000 to 10000 nM.

Regarding `Cc1ccc(Nc2cccc3c2CCN(CC(C)(C)F)C3)cc1-c1ccc(C#N)cn1` [Compound 198], the half-inhibitory concentration (IC50) under setting [1] lay within 0.001 to 1 nM. In the case of `Cc1ccc(Nc2cccc3c2CCN(CC(C)(C)O)C3)cc1-c1ccc(C#N)cn1` [Compound 199], the half-inhibitory concentration (IC50) under setting [1] was in the range of 1 to 10 nM. On the same count and under the same terms, the result for `Cc1ccc(-c2cc(Nc3cccc4c3CCN(CC(C)(C)F)C4)ccc2C)nc1` [Compound 200] reads 0.001 to 1 nM; that for `Cc1ccc(-c2cc(Nc3cccc4c3CCN(CC(C)(C)O)C4)ccc2C)nc1` [Compound 201], 0.001 to 1 nM; that for `Cc1ncc(Nc2cccc3c2CCN(S(C)(=O)=O)C3)cc1-c1ccc(F)cn1` [Compound 202], 10 to 100 nM. Still for that read-out and setting: the result for `CS(=O)(=O)N1CCc2c(cccc2Nc2cc(C(=O)Nc3ccccc3)c(Cl)cn2)C1` [Compound 203] reads 1 to 10 nM; that for `Cc1ccc(Nc2cccc3c2CCN(S(C)(=O)=O)C3)cc1-c1ccc(C#N)nn1` [Compound 207], 10 to 100 nM. As to `Cc1ccc(Nc2cccc3c2CCN(S(C)(=O)=O)C3)cc1-c1cnc(C#N)cn1` [Compound 208], under setting [1], the IC50 lay in the range of 100 to 1000 nM. Same read-out and setting: the result for `Cc1ccc(-c2cc(Nc3cccc4c3CCN(C[C@H](O)CO)C4)ccc2C)nn1` [Compound 209] reads 100 to 1000 nM; that for `Cc1ccc(-c2cc(Nc3cccc4c3CCN(C[C@H](O)CO)C4)ccc2C)nc1` [Compound 210], 1 to 10 nM.

As to `Cc1ccc(Nc2cccc3c2CCN(CC(F)(F)CO)C3)cc1-c1ccc(C#N)cn1` [Compound 211], under setting [1], the half-maximal inhibitory concentration (IC50) was 0.001 to 1 nM. On the same count and under the same terms, the result for `Cc1ccc(-c2cc(Nc3cccc4c3CCN(CC(F)(F)CO)C4)ccc2C)nc1` [Compound 212] reads 0.001 to 1 nM. As for `Cc1ccc(-c2cc(Nc3cccc4c3CCN(CC(C)(C)C)C4)ccc2C)nc1` [Compound 213], under setting [1], the concentration for half-maximal inhibition (IC50) was in the range of 1 to 10 nM. Still for that read-out and setting: the result for `Cc1ccc(Nc2cccc3c2CCN(S(C)(=O)=O)C3)cc1Oc1ccccn1` [Compound 214] reads 100 to 1000 nM; that for `Cc1ccc(Nc2cccc3c2CCN(S(C)(=O)=O)C3)cc1OCc1ccccn1` [Compound 215], 10 to 100 nM. In the case of `Cc1cnc(-c2cc(Nc3cccc4c3CCN(S(C)(=O)=O)C4)ccc2C)nc1` [Compound 216], the concentration for half-maximal inhibition (IC50) runs as follows: under setting [2], 15 nM; under setting [1], 10 to 100 nM.

Turning to `Cc1ccc(Nc2cccc3c2CCN(S(C)(=O)=O)C3)cc1-c1cc(F)ccn1` [Compound 217], the IC50 under setting [1] fell in the range of 1 to 10 nM. For `Cc1ccc(Nc2cccc3c2CCN(S(C)(=O)=O)C3)cc1-c1cccc(F)n1` [Compound 218], the IC50 under setting [1] lay in the range of 10 to 100 nM. On the same count and under the same terms, with `Cc1ccnc(-c2cc(Nc3cccc4c3CCN(S(C)(=O)=O)C4)ccc2C)n1` [Compound 219] the figure was 10 to 100 nM. As to `Cc1ccc(Nc2cccc3c2CCN(S(C)(=O)=O)C3)cc1-c1ncc(F)cn1` [Compound 220], under setting [1], the IC50 lay in the range of 1 to 10 nM. On the same count and under the same terms, with `Cc1ccc(Nc2cccc3c2CCN(CC(C)(C)F)C3)cc1C(=O)Nc1ccccc1` [Compound 221] the figure was 1 to 10 nM. As for `Cc1ccc(Nc2cccc3c2CCN(CC(C)(C)O)C3)cc1C(=O)Nc1ccccc1` [Compound 222], under setting [1], the concentration for half-maximal inhibition (IC50) lay in the range of 1 to 10 nM.

Regarding `Cc1ccc(-c2cc(Nc3cccc4c3CCN(CCS(C)(=O)=O)C4)ccc2C)nc1` [Compound 223], the 50% inhibitory concentration (IC50) under setting [1] is 0.001 to 1 nM. For `Cc1ccc(-c2cc(Nc3cccc4c3CCN(CC(C)(F)F)C4)ccc2C)nc1` [Compound 224], under setting [1], the IC50 fell in the range of 0.001 to 1 nM. The same measure, in the same setting: with `Cc1ncc(Nc2cccc3c2CCN(S(C)(=O)=O)C3)cc1C(=O)Nc1ccccc1` [Compound 225] the figure was 1 to 10 nM; with `CS(=O)(=O)N1CCc2c(cccc2Nc2ccc(Cl)c(C(=O)Nc3ccccc3)n2)C1` [Compound 226], 0.001 to 1 nM; with `Cc1ccc(Nc2cccc3c2CCN(S(C)(=O)=O)C3)cc1-c1ncccc1F` [Compound 227], 0.001 to 1 nM. On the same count and under the same terms, with `Cc1cnc(-c2cc(Nc3cccc4c3CCN(S(C)(=O)=O)C4)ccc2C)c(F)c1` [Compound 228] the figure was 0.001 to 1 nM.

For the compound `Cc1ccc(Nc2cccc3c2CCN(S(C)(=O)=O)C3)cc1-c1cc2ccccc2cn1` [Compound 229], the IC50 runs as follows: under setting [2], 0.3 nM; under setting [1], 0.001 to 1 nM. Turning to `COc1ccnc(-c2cc(Nc3cccc4c3CCN(S(C)(=O)=O)C4)ccc2C)c1` [Compound 230], under setting [1], the IC50 lay within 0.001 to 1 nM. Turning to `Cc1ccc(Nc2cccc3c2CCN(S(C)(=O)=O)C3)cc1-c1ccc2ccccc2n1` [Compound 231], the IC50 under setting [1] lay in the range of 0.001 to 1 nM. In the case of `Cc1ccc(Nc2cccc3c2CCN(CCS(C)(=O)=O)C3)cc1-c1ccc(F)cn1` [Compound 232], under setting [1], the concentration for half-maximal inhibition (IC50) was 1 to 10 nM.

On to `Cc1ccc(-c2cc(Nc3cccc4c3CCN(CC(=O)N(C)C)C4)ccc2C)nc1` [Compound 233], for which, under setting [1], the IC50 fell in the range of 1 to 10 nM. For the compound `Cc1ccc(Nc2cccc3c2CCN(C2CCS(=O)(=O)CC2)C3)cc1-c1ccc(F)cn1` [Compound 234], the 50% inhibitory concentration (IC50) under setting [1] fell in the range of 0.001 to 1 nM. Same read-out and setting: the result for `Cc1ccc(-c2cc(Nc3cccc4c3CCN(C3CCS(=O)(=O)CC3)C4)ccc2C)nc1` [Compound 235] reads 0.001 to 1 nM. Still for that read-out and setting: with `Cc1ccc(-c2cc(Nc3nccc4c3CCN(S(C)(=O)=O)C4)ccc2C)nc1` [Compound 236] the figure was 10 to 100 nM; with `Cc1ccc(Nc2cccc3c2CCN(S(C)(=O)=O)C3)cc1COc1ccccn1` [Compound 237], 100 to 1000 nM; with `COc1ccnc(-c2cc(Nc3cccc4c3CCN(S(C)(=O)=O)C4)ccc2C)n1` [Compound 239], 10 to 100 nM. Same read-out and setting: with `Cc1cnc(-c2cc(Nc3cccc4c3CCN(S(C)(=O)=O)C4)ccc2C)cc1C` [Compound 241] the figure was 0.001 to 1 nM.

On to `Cc1ccc(Nc2nccc3c2CCN(S(C)(=O)=O)C3)cc1-c1ccc(F)cn1` [Compound 244], for which the IC50 under setting [1] was 100 to 1000 nM.

Turning to `Cc1ccc(Nc2cccc3c2CCN(CCS(C)(=O)=O)C3)cc1-c1ccc(C#N)cn1` [Compound 245], the concentration for half-maximal inhibition (IC50) under setting [1] was 1 to 10 nM. Take `Cc1ccc(Nc2cccc3c2CCN(CCS(C)(=O)=O)C3)cc1C(=O)Nc1ccccc1` [Compound 246]: the IC50 under setting [1] is 10 to 100 nM.

As to `Cc1ccc(Nc2nccc3c2CCN(S(C)(=O)=O)C3)cc1C(=O)Nc1ccccc1` [Compound 247], under setting [1], the IC50 is 10 to 100 nM. Turning to `Cc1ccc(-c2cc(Nc3ncnc4c3CCN(S(C)(=O)=O)C4)ccc2C)nc1` [Compound 248], under setting [1], the IC50 lay in the range of 1 to 10 nM. Still for that read-out and setting: with `Cc1ccc(Nc2cccc3c2CCN(C2CCS(=O)(=O)C2)C3)cc1-c1ccc(F)cn1` (stereo not drawn) [Compound 250] the figure was 0.001 to 1 nM; with `Cc1ccc(-c2cc(Nc3cccc4c3CCN(CCC(F)(F)F)C4)ccc2C)nc1` [Compound 251], 0.001 to 1 nM. As to `Cc1ccc(Nc2cccc3c2CCN(CCC(F)(F)F)C3)cc1-c1ccc(F)cn1` [Compound 252], the IC50 under setting [1] fell in the range of 0.001 to 1 nM.

As for `Cc1ccc(Nc2cccc3c2CCN(S(C)(=O)=O)C3)cc1-c1cnc(N(C)C)cn1` [Compound 253], the IC50 under setting [1] is 1 to 10 nM.
